Results on 34 molecules are retold here after US6710060B2, “4-hydroxypiperidine derivatives having antiarrhythmic activity” (Mochida Pharmaceutical Co., Ltd., priority 1999, dated 2004).

Each structure is given as a SMILES string. Counter-ions that a name gives are not always drawn.

In the case of `CN(CCC1(O)CCN(Cc2ccccc2)CC1)c1ccc(OC2CCC2)cc1` [Example 17, 1-Benzyl-4-[2-[N-(4-cyclobutoxyphenyl)-N-methylamino]-ethyl]piperidin-4-ol], the melting point (in general, the temperature, or range, at which the solid turns liquid) fell in the range of 68.6 to 69.8 °C. The figure for `CCCCOc1ccc(N(C)CCC2(O)CCN(CC(O)c3ccccc3)CC2)cc1` (stereo not shown) [Example 54, 4-[2-[N-(4-n-butoxyphenyl)-N-methylamino]-ethyl]-1-(2-phenyl-2-hydroxyethyl)piperidin-4-ol] is 104 to 104.8 °C; for `CC(C)Oc1ccc(N(C)CCC2(O)CCN(Cc3ccc(OC(C)C)cc3F)CC2)cc1` [Example 90, 1-(2-fluoro-4-isopropoxyphenylmethyl)-4-[2-[N-methyl-N-(4-isopropoxyphenyl)amino]ethyl]piperidin-4-ol] it is 65.1 to 66.1 °C; for `COc1cccc(CN2CCC(O)(CCN(C)c3ccc(OC(C)C)cc3)CC2)c1` [Example 77, 1-(3-methoxyphenylmethyl)-4-[2-[N-methyl-N-(4-isopropoxyphenyl)amino]ethyl]piperidin-4-ol] it is 45.1 to 46.5 °C.

`CC(C)Oc1ccc(N(C)CCC2(O)CCN(Cc3ccc(Br)cc3)CC2)cc1` [Example 73, 1-(4-bromophenylmethyl)-4-[2-[N-methyl-N-(4-isopropoxyphenyl)amino]ethyl]piperidin-4-ol] displayed a melting point of 104.3 to 105 °C.

In the case of `CC(C)Oc1ccc(NCCC2(O)CCN(Cc3ccc(C(F)(F)F)cc3)CC2)cc1` [Example 125, 4-[2-[N-(4-isopropoxyphenyl)amino]ethyl]-1-[4-(trifluoromethyl)phenylmethyl]piperidin-4-ol], the melting point lay within 152.3 to 153.1 °C. Molecule `COc1ccc(CN2CCC(O)(CCN(C)c3ccc(OC(C)C)cc3)CC2)cc1` [Example 76, 1-(4-methoxyphenylmethyl)-4-[2-[N-methyl-N-(4-isopropoxyphenyl)amino]ethyl]piperidin-4-ol] showed a melting point of 50.8 to 52.4 °C. The figure for `CCCCOc1ccc(N(C)CCC2(O)CCN(Cc3ccc(N(C)C)cc3)CC2)cc1` [Example 24, 4-[2-[N-(4-n-butoxyphenyl)-N-methylamino]ethyl]-1-[4-(dimethylamino)phenylmethyl]piperidin-4-ol] is 71.3 to 73 °C; for `CCCCOc1ccc(N(C)CCC2(O)CCN(Cc3ccc4c(c3)OCO4)CC2)cc1` (as salt: hydrochloride) [Example 162, 4-[2-[N-(4-n-butoxyphenyl)-N-methylamino]ethyl]-1-(3,4-methylenedioxyphenylmethyl)piperidin-4-ol dihydrochloride] it is 211 °C (dec.). In turn, `CCOC(=O)c1ccc(CN2CCC(O)(CCN(C)c3ccc(OC(C)C)cc3)CC2)cc1` [Example 106, 1-[4-(ethoxycarbonyl)phenylmethyl]-4-[2-[N-methyl-N-(4-isopropoxyphenyl)amino]ethyl]piperidin-4-ol] came in with a melting point of 50.3 to 51.6 °C.

Consider `CC(C)Oc1ccc(N(C)CCC2(O)CCN(Cc3ccc(Br)cc3)CC2)cc1` (as salt: hydrochloride) [Example 220, 1-(4-bromophenylmethyl)-4-[2-[N-methyl-N-(4-isopropoxyphenyl)amino]ethyl]piperidin-4-ol dihydrochloride], for which the melting point lay in the range of 224.4 to 226.2 °C. As for `CC(C)Oc1ccc(N(C)CCC2(O)CCN(Cc3ccc(F)cc3F)CC2)cc1` [Example 87, 1-(2,4-difluorophenylmethyl)-4-[2-[N-methyl-N-(4-isopropoxyphenyl)amino]ethyl]piperidin-4-ol], the melting point was 77.6 to 77.9 °C. The figure for `CC(C)Oc1ccc(N(C)CCC2(O)CCN(Cc3ccc(Br)cc3F)CC2)cc1` (as salt: hydrochloride) [Example 240, 1-(4-bromo-2-fluorophenylmethyl)-4-[2-[N-methyl-N-(4-isopropoxyphenyl)amino]ethyl]piperidin-4-ol dihydrochloride] is 228.3 to 229.1 °C.

The molecule `CC(C)Oc1ccc(NCCC2(O)CCN(C(c3ccccc3)c3ccccc3)CC2)cc1` [Example 136, 1-diphenylmethyl-4-[2-[N-(4-isopropoxyphenyl)-amino]ethyl]piperidin-4-ol] yielded a melting point of 170 to 171.2 °C. The figure for `CCCCOc1ccc(N(C)CCC2(O)CCN(CCc3ccc(F)cc3)CC2)cc1` (as salt: hydrochloride) [Example 176, 4-[2-[N-(4-n-butoxyphenyl)-N-methylamino]ethyl]-1-[2-(4-fluorophenyl)ethyl]piperidin-4-ol dihydrochloride] is 207 °C (dec.); for `CCCCOc1ccc(N(C)CCC2(O)CCN(Cc3ccc(C(F)(F)F)cc3)CC2)cc1` [Example 21, 4-[2-[N-(4-n-butoxyphenyl)-N-methylamino]ethyl]-1-[4-(trifluoromethyl)phenylmethyl]piperidin-4-ol] it is 77.4 to 78.2 °C. In the case of `CC(C)COc1ccc(N(C)CCC2(O)CCN(Cc3ccccc3)CC2)cc1` [Example 16, 1-Benzyl-4-[2-[N-(4-isobutoxyphenyl)-N-methylamino]-ethyl]piperidin-4-ol], the melting point was in the range of 50.6 to 52.5 °C. With `COC(=O)c1cccc(CN2CCC(O)(CCN(C)c3ccc(OC(C)C)cc3)CC2)c1` [Example 111, 1-[3-(methoxycarbonyl)phenylmethyl]-4-[2-[N-methyl-N-(4-isopropoxyphenyl)amino]ethyl]piperidin-4-ol] the figure was 53.8 to 54.7 °C; with `CCCCOc1ccc(N(C)CCC2(O)CCN(Cc3ccc(F)c(F)c3)CC2)cc1` [Example 30, 4-[2-[N-(4-n-butoxyphenyl)-N-methylamino]ethyl]-1-(3,4-difluorophenylmethyl)piperidin-4-ol], 49.8 to 50.5 °C. Molecule `CCCCOc1ccc(N(CCC2(O)CCN(CCc3ccc(F)cc3)CC2)C(C)=O)cc1` [Example 57, 4-[2-[N-acetyl-N-(4-n-butoxyphenyl)amino]ethyl]-1-[2-(4-fluorophenyl)ethyl]piperidin-4-ol] gave a melting point of 121.6 to 122.1 °C. The molecule `CCCCOc1ccc(N(C)CCC2(O)CCN(Cc3cccc(F)c3)CC2)cc1` [Example 29, 4-[2-[N-(4-n-butoxyphenyl)-N-methylamino]ethyl]-1-(3-fluorophenylmethyl)piperidin-4-ol] displayed a melting point of 46.7 to 47.2 °C. For the molecule `CC(C)Oc1ccc(N(C)CCC2(O)CCN(Cc3ccc4ccccc4c3)CC2)cc1` [Example 80, 4-[2-[N-methyl-N-(4-isopropoxyphenyl)amino]ethyl]-1-(2-naphthylmethyl)piperidin-4-ol], the melting point lay in the range of 76.2 to 76.8 °C.

As for `CC(C)Oc1ccc(N(C)CCC2(O)CCN(Cc3ccc(F)c(C(F)(F)F)c3)CC2)cc1` [Example 88, 1-[4-fluoro-3-(trifluoromethyl)phenylmethyl]-4-[2-[N-methyl-N-(4-isopropoxyphenyl)amino]ethyl]piperidin-4-ol], the melting point was 58.8 to 62.8 °C. With `CCOc1ccc(N(C)CCC2(O)CCN(C(c3ccccc3)c3ccccc3)CC2)cc1` [Example 133, 1-diphenylmethyl-4-[2-[N-(4-ethoxyphenyl)-N-methylamino]ethyl]piperidin-4-ol] the figure was 94.3 to 95.8 °C; with `CCCCOc1ccc(N(C)CCC2(O)CCN(CC(O)c3ccc(F)cc3)CC2)cc1` (stereo not shown) [Example 55, 4-[2-[N-(4-n-butoxyphenyl)-N-methylamino]ethyl]-1-[2-(4-fluorophenyl)-2-hydroxyethyl]piperidin-4-ol], 92.8 to 94.5 °C; with `CC(C)Oc1ccc(N(C)CCC2(O)CCN(Cc3ccc(C#N)cc3)CC2)cc1` (as salt: hydrochloride) [Example 226, 1-(4-cyanophenylmethyl)-4-[2-[N-methyl-N-(4-isopropoxyphenyl)amino]ethyl]piperidin-4-ol dihydrochloride], 220.8 to 222.2 °C. With `CSc1ccc(CN2CCC(O)(CCN(C)c3ccc(OC(C)C)cc3)CC2)cc1` [Example 109, 4-[2-[N-methyl-N-(4-isopropoxyphenyl)amino]ethyl]-1-[4-(methylthio)phenylmethyl]piperidin-4-ol] the figure was 66.2 to 68 °C; with `CCCCOc1ccc(N(CCC2(O)CCN(Cc3ccccc3)CC2)C(C)=O)cc1` [Example 56, 4-[2-[N-acetyl-N-(4-n-butoxyphenyl)amino]-ethyl]-1-benzylpiperidin-4-ol], 89.7 to 90.6 °C. As to `CCCCOc1ccc(N(C)CCC2(OC)CCN(Cc3ccccc3)CC2)cc1` (as salt: hydrochloride) [Example 201, 1-benzyl-4-methoxy-4-[2-[N-(4-n-butoxyphenyl)-N-methylamino]ethyl]piperidine dihydrochloride], the melting point is 215 °C (dec.). In turn, `CC(C)Oc1ccc(N(C)CCC2(O)CCN(Cc3ccc(C(F)(F)F)cc3)CC2)cc1` (as salt: hydrochloride) [Example 221, 4-[2-[N-methyl-N-(4-isopropoxyphenyl)amino]ethyl]-1-[4-(trifluoromethyl)phenylmethyl]piperidin-4-ol dihydrochloride] registered a melting point of 241.2 to 242.6 °C. The figure for `CC(C)Oc1ccc(N(C)CCC2(O)CCN(Cc3cccc(F)c3)CC2)cc1` [Example 94, 1-(3-fluorophenylmethyl)-4-[2-[N-methyl-N-(4-isopropoxyphenyl)amino]ethyl]piperidin-4-ol] is 52.5 to 54.6 °C. Turning to `CCCCOc1ccc(N(C)CCC2(O)CCN(CCc3ccc(F)cc3F)CC2)cc1` (as salt: hydrochloride) [Example 183, 4-[2-[N-(4-n-butoxyphenyl)-N-methylamino]ethyl]-1-[2-(2,4-difluorophenyl)ethyl]piperidin-4-ol dihydrochloride], the melting point was 209 °C (dec.). The figure for `CC(C)Oc1ccc(N(C)CCC2(O)CCN(Cc3ccc([N+](=O)[O-])cc3)CC2)cc1` [Example 84, 4-[2-[N-methyl-N-(4-isopropoxyphenyl)amino]ethyl]-1-(4-nitrophenylmethyl)piperidin-4-ol] is 62.5 to 63.1 °C; for `CC(C)Oc1ccc(N(C)CCC2(O)CCN(Cc3ccc(OC(F)(F)F)cc3)CC2)cc1` (as salt: hydrochloride) [Example 236, 4-[2-[N-methyl-N-(4-isopropoxyphenyl)amino]ethyl]-1-(4-trifluoromethoxyphenylmethyl)piperidin-4-ol dihydrochloride] it is 233.2 to 234.9 °C.
